# Patent US20100105864A1, “PROPHYLACTIC OR THERAPEUTIC AGENT FOR DIARRHEA” (priority 2007, published 2010)
# Target: T1, human calcium receptor (Homo sapiens, UniProt P41180)
# T1 construct: expressed in transfected cells; host or cells: Xenopus laevis oocytes injected with cRNA
# T1 sequence (P41180 20-1078): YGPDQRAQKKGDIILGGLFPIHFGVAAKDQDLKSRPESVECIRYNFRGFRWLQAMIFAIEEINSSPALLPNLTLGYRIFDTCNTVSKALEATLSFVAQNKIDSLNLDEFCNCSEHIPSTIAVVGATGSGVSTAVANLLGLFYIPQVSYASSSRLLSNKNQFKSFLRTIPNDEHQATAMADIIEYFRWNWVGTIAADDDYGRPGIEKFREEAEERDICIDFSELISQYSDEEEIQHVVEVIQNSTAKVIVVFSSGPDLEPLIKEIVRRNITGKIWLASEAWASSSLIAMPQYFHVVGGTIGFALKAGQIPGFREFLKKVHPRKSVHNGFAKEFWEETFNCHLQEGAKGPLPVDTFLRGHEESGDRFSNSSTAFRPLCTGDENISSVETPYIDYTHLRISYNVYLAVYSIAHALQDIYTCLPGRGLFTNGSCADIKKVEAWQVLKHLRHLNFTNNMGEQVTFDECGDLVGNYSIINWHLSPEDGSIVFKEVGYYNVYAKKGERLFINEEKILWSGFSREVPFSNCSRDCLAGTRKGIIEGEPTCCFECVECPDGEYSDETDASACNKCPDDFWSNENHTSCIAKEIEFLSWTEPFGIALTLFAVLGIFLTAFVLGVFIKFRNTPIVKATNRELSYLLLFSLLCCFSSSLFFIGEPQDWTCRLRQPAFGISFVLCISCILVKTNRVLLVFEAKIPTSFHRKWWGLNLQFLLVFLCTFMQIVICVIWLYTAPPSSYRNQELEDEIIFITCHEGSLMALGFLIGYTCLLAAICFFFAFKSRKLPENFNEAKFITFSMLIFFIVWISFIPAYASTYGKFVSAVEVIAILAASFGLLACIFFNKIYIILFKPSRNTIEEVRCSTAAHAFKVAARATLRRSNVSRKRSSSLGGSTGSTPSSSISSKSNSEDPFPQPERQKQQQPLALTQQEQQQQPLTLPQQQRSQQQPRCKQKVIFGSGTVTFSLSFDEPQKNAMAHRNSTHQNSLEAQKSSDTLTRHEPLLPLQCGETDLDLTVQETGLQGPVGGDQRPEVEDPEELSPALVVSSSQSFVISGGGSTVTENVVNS
# Assay: Ca ion concentration-dependent Cl ionic current measurement in Xenopus laevis oocytes expressing the calcium receptor
# Assay type: cell-based
# Settings: peptide added at 50 μM
# Protocol: For evaluation of the calcium receptor-activating action, a Ca ion concentration-dependent Cl ionic current measuring method using a Xenopus laevis oocyte expression system was used. If each activator is added to Xenopus laevis oocytes expressing the calcium receptor, intracellular Ca ions increase. Then, the Ca ion concentration-dependent Cl channel opens, and the intracellular current value changes as an ionic current. By measuring the change in the intracellular current value, whether the calcium receptor-activating action is present or not can be determined.
# Specifically, the abdomen of Xenopus laevis was opened, and an egg batch was taken out and then treated with a 1% collagenase solution at 20° C. for 2 hours to obtain individual oocytes. Into the oocytes, 50 nl of 1 μg/μl receptor cRNA or 50 nl of sterilized water per oocyte were injected by using a micro glass capillary, and the oocytes were cultured at 18° C. for 2 to 3 days. For the culture, a solution obtained by adding 2 mM pyruvic acid, 10 U/ml penicillin, and 10 μg/ml streptomycin to the solution in Example 2 was used. After the culture, a test solution was added to the oocytes injected with cRNA or sterilized water. Electrophysiological measurement was performed by using an amplifier Geneclamp 500 (manufactured by Axon) and recording software AxoScope 9.0 (manufactured by Axon). The oocytes were membrane potential-clamped at −70 mV by the double electrode potential clamp method, and the intracellular current was measured via the Ca ion concentration-dependent Cl ion channel. The maximum value of the intracellular current was defined as the response current value. […]
# The calcium receptor-activating action of L-amino acids was evaluated by using the method described in Example 13. That is, oocytes injected with cRNA of the calcium receptor or sterilized water were prepared, and membrane potential-clamped at −70 mV by the double electrode potential clamp method. To the potential-clamped oocytes, alanine (10 mM), arginine (10 mM), asparagine (10 mM), aspartic acid (10 mM), cysteine (10 mM), glutamine (10 mM), glutamic acid (10 mM), glycine (10 mM), histidine (10 mM), isoleucine (10 mM), leucine (10 mM), lysine (10 mM), methionine (10 mM), phenylalanine (10 mM), proline (10 mM), serine (10 mM), threonine (10 mM), tryptophan (10 mM), tyrosine (10 mM), valine (10 mM), ornithine (10 mM), taurine (10 mM), or hydroxyproline (10 mM) was added, and Ca ion concentration-dependent Cl response current was measured. […] As for the above-described amino acids, the activating action is reported in Proc. Natl. Acad. Sci. USA, Apr. 25, 2000, 97(9): 4814-9.
# The calcium receptor-activating action of D-cysteine was evaluated by using the method described in Example 13. That is, oocytes injected with cRNA of the calcium receptor or sterilized water were prepared, and membrane potential-clamped at −70 mV by the double electrode potential clamp method. To the potential-clamped oocytes, D-cysteine (10 mM), L-cysteine (10 mM), D-tryptophan (10 mM), or L-tryptophan (10 mM) was added, and Ca ion concentration-dependent Cl response current was measured.
# The calcium receptor-activating action of a peptide was evaluated by using the method described in Example 13. That is, oocytes injected with cRNA of the calcium receptor or sterilized water were prepared, and membrane potential-clamped at −70 mV by the double electrode potential clamp method.
smiles,measurement,value
N[C@@H](CCC(=O)N[C@@H](CS)C(=O)NCC(=O)O)C(=O)O [γ-Glu-Cys-Gly],calcium receptor-activating action (Ca ion concentration-dependent Cl response current),definite calcium receptor-activating action
